Reference: patent US10336729B2, “4-cyano-benzyl carbamimidoylcarbamate derivatives and their use as AOC3 inhibitors” (Boehringer Ingelheim International GmbH, priority 2016, dated 2019)

These molecules were tested against AOC3 (Homo sapiens (Human), UniProt Q16853) (assay: MAO-Glo AOC3 assay). Settings: recombinant CHO cells overexpressing AOC3 enzyme.
Assay type: biochemical
Excerpt: The MAO-Glo™ Assay (commercial available from PROMEGA, #V1402) provides a sensitive method for the measurement of monoamine oxidase (MAO) activity (Valley, M. P. et al., 2006, Anal. Biochem. 359: 238-246) from a variety of tissues, biofluids or recombinant expressed or purified enzymes. As substrate a derivate of the beetle luciferin ((4S)-4,5-dihydro-2-(6-hydroxybenzothiazolyl)-4-thiazole-carboxylic acid) is used, which is oxidized at a primary amine moiety. After a spontaneous elimination and a catalyzed esterase reaction, the turnover of the luciferine by the luciferase is recorded as a signal of AOC3 activity.
An aliquot of 3 μL of the compound dilution is added to a 384 well plate (Optiplate, PS, flat bottom, white, PERKIN ELMER, #6007290) with a final DMSO concentration of 6.6%. Recombinant CHO cells, overexpressing the human (1500 cells/well), mouse (1000 cells/well) or rat (500 cells/well) AOC3 enzyme are diluted in reaction buffer and added in a volume of 15 μL to the wells. After incubation for 20 minutes at 37° C., 2 μL of MAO substrate (dissolved in DMSO at 16 mM, adjusted to assay concentration in reaction buffer to a final assay concentration of 20 μM) is added and further incubated for 60 minutes at 37° C. The turnover of the substrate is determined by the addition of 20 μL of the detection-mix which was generated by the addition of reconstitution buffer with esterase (PROMEGA, #V1402) to the luciferine detection reagent (PROMEGA, #V1402). After an incubation period of 20 minutes, the luminescent signal is measured with Envision 2104 Multilabel Reader (PERKIN ELMER).

AOC3, sequence (Q16853 whole entry): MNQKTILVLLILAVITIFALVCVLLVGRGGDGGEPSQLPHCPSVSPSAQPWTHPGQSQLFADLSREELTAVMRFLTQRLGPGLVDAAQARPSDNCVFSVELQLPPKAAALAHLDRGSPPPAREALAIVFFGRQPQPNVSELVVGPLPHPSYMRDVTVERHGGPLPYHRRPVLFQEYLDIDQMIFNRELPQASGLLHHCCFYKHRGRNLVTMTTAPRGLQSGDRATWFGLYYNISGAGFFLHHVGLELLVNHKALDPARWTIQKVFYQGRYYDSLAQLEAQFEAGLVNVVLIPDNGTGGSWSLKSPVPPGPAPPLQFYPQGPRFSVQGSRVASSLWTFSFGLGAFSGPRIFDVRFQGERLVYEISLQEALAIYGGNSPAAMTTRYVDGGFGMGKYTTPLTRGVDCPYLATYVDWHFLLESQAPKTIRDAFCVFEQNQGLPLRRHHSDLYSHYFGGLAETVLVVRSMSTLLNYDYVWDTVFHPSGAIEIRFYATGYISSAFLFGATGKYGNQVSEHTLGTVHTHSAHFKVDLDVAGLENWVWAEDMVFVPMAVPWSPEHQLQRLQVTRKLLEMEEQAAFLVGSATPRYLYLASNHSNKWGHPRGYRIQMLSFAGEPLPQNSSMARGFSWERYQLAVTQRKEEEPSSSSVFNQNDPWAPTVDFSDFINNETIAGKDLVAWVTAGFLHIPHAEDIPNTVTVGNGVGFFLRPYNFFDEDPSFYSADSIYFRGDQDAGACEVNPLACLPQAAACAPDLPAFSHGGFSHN

Structure (SMILES) | IC50 [nM]
Cc1cnc(C2=CCN(c3c(C#N)ccc(COC(=O)NC(=N)N)c3F)CC2)nc1 [Example 1.075] | 85
N#Cc1ccc(COC(=O)NC(=N)N)c(F)c1N1CCC(c2cccc(Cl)c2)CC1 [Example 1.076] | 56
N#Cc1ccc(COC(=O)NC(=N)N)c(F)c1N1C2CCC1CC(c1ccccc1)C2 (stereo not shown) [Example 1.077] | 293
N#Cc1ccc(COC(=O)NC(=N)N)c(F)c1N1CCN(c2ccc(Cl)cn2)CC1 [Example 1.078] | 7
N#Cc1ccc(COC(=O)NC(=N)N)c(F)c1N1CCC(C2CCN(S(N)(=O)=O)CC2)CC1 [Example 1.079] | 9
CCOc1ccc(C2CCN(c3c(C#N)ccc(COC(=O)NC(=N)N)c3F)CC2)cn1 [Example 1.080] | 20
N#Cc1ccc(COC(=O)NC(=N)N)c(F)c1N1CCN(c2ncccn2)CC1 [Example 1.081] | 45
N#Cc1ccc(COC(=O)NC(=N)N)c(F)c1N1CCN(c2ncncn2)CC1 [Example 1.082] | 57
N#Cc1ccc(COC(=O)NC(=N)N)c(F)c1N1CCN(c2cccnn2)CC1 [Example 1.083] | 34
N#Cc1ccc(COC(=O)NC(=N)N)c(F)c1N1CCC(c2ccc(C(F)(F)F)cc2)CC1 [Example 1.084] | 502
N#Cc1ccc(COC(=O)NC(=N)N)c(F)c1N1CCC(O)(c2ccccc2)CC1 [Example 1.085] | 280
Cc1ccc(N2CCN(c3c(C#N)ccc(COC(=O)NC(=N)N)c3F)CC2)cc1C [Example 1.086] | 149
N#Cc1ccc(COC(=O)NC(=N)N)c(F)c1N1CC(c2ccccn2)C1 [Example 1.087] | 470
N#Cc1ccc(COC(=O)NC(=N)N)c(F)c1N1CCC(N2CCCC2=O)CC1 [Example 1.088] | 889
N#Cc1ccc(COC(=O)NC(=N)N)c(F)c1N1CCC(N2CCC(O)CC2)CC1 [Example 1.089] | 56
N#Cc1ccc(COC(=O)NC(=N)N)c(F)c1N1CCC(C#N)(c2ccccc2)CC1 [Example 2.001] | 166
N#Cc1ccc(COC(=O)NC(=N)N)c(F)c1N1CCC2(CC1)CC(=O)Nc1ncccc12 [Example 2.002] | 93
N#Cc1ccc(COC(=O)NC(=N)N)c(F)c1N1CCN(c2ccncc2)CC1 [Example 2.003] | 7
Cc1cc(N2CCN(c3c(C#N)ccc(COC(=O)NC(=N)N)c3F)CC2)ccn1 [Example 2.004] | 3
Cc1cnc(C2CCN(c3c(C#N)ccc(COC(=O)NC(=N)N)c3F)CC2)o1 [Example 2.005] | 20
N#Cc1ccc(COC(=O)NC(=N)N)c(F)c1N1CCC(c2nnco2)CC1 [Example 2.006] | 33
N#Cc1ccc(N2CCN(c3cc(COC(=O)NC(=N)N)c(F)cc3C#N)CC2)cc1 [Example 3.001] | 393
